From ChEMBL document CHEMBL2390858, “Design, synthesis and anti-tuberculosis activity of 1-adamantyl-3-heteroaryl ureas with improved in vitro pharmacokinetic properties” (Bioorg Med Chem, 2013)
Converted amounts (≈) assume the structure as drawn.

System: Enterococcus faecalis
Assay: microbe, parasite or virus in culture
Details: not given
Work on CC(C)c1nnc(NC(=O)NC2C3CC4CC(C3)CC2C4)o1 (configuration not stated) yielded an MIC of 100 µg/mL (≈ 329 µM).
For Cc1cnc(NC(=O)NC23CC4CC(CC(C4)C2)C3)s1, the MIC was 200 µg/mL (≈ 686 µM).
With CC(C)(C)c1cc(NC(=O)NC23CC4CC(CC(C4)C2)C3)no1 the MIC was 100 µg/mL (≈ 315 µM).

System: Burkholderia cepacia
Assay: microbe, parasite or virus in culture
Details: not given
With CC(C)c1nnc(NC(=O)NC2C3CC4CC(C3)CC2C4)o1 (configuration not stated) the MIC was > 200 µg/mL.
With Cc1cnc(NC(=O)NC23CC4CC(CC(C4)C2)C3)s1 the MIC was > 200 µg/mL.

System: Streptococcus pyogenes
Assay: microbe, parasite or virus in culture
Details: not given
In the case of CC(C)c1nnc(NC(=O)NC2C3CC4CC(C3)CC2C4)o1 (configuration not stated), the MIC is reported as 200 µg/mL (≈ 657 µM).
For Cc1cnc(NC(=O)NC23CC4CC(CC(C4)C2)C3)s1, the MIC was > 200 µg/mL.
With CC(C)(C)c1cc(NC(=O)NC23CC4CC(CC(C4)C2)C3)no1 the MIC was > 200 µg/mL.

System: Escherichia coli
Assay: microbe, parasite or virus in culture
Details: K-12
For CC(C)c1nnc(NC(=O)NC2C3CC4CC(C3)CC2C4)o1 (configuration not stated), the MIC was > 200 µg/mL.
For Cc1cnc(NC(=O)NC23CC4CC(CC(C4)C2)C3)s1, the MIC was > 200 µg/mL.
CC(C)(C)c1cc(NC(=O)NC23CC4CC(CC(C4)C2)C3)no1 showed an MIC of 100 µg/mL (≈ 315 µM).

System: Pseudomonas aeruginosa
Assay: microbe, parasite or virus in culture
Details: not given
With CC(C)c1nnc(NC(=O)NC2C3CC4CC(C3)CC2C4)o1 (configuration not stated) the MIC was > 200 µg/mL.
With Cc1cnc(NC(=O)NC23CC4CC(CC(C4)C2)C3)s1 the MIC was > 200 µg/mL.
For CC(C)(C)c1cc(NC(=O)NC23CC4CC(CC(C4)C2)C3)no1, the MIC was > 200 µg/mL.

System: Bacillus anthracis
Assay: microbe, parasite or virus in culture
Details: Sterne
For CC(C)c1nnc(NC(=O)NC2C3CC4CC(C3)CC2C4)o1 (configuration not stated), the MIC was 100 µg/mL (≈ 329 µM).
With Cc1cnc(NC(=O)NC23CC4CC(CC(C4)C2)C3)s1 the MIC was > 200 µg/mL.
For CC(C)(C)c1cc(NC(=O)NC23CC4CC(CC(C4)C2)C3)no1, the MIC was > 200 µg/mL.

System: Staphylococcus aureus
Assay: microbe, parasite or virus in culture
Details: NRS70
With CC(C)c1nnc(NC(=O)NC2C3CC4CC(C3)CC2C4)o1 (configuration not stated) the MIC was > 200 µg/mL.
Work on Cc1cnc(NC(=O)NC23CC4CC(CC(C4)C2)C3)s1 yielded an MIC of 200 µg/mL (≈ 686 µM).
In the case of CC(C)(C)c1cc(NC(=O)NC23CC4CC(CC(C4)C2)C3)no1, the MIC is reported as 200 µg/mL (≈ 630 µM).

System: Streptococcus pneumoniae
Assay: microbe, parasite or virus in culture
Details: not given
Work on CC(C)c1nnc(NC(=O)NC2C3CC4CC(C3)CC2C4)o1 (configuration not stated) yielded an MIC of 100 µg/mL (≈ 329 µM).
With Cc1cnc(NC(=O)NC23CC4CC(CC(C4)C2)C3)s1 the MIC was > 200 µg/mL.
In the case of CC(C)(C)c1cc(NC(=O)NC23CC4CC(CC(C4)C2)C3)no1, the MIC is reported as > 200 µg/mL.

System: not listed separately
Assay: Metabolic stability in CD-1 mouse liver microsomes assessed as compound remaining after 90 mins in presence of NADPH
Format: ADME, Microsome
Details: read-out: Stability
With CC(C)c1nnc(NC(=O)NC2C3CC4CC(C3)CC2C4)o1 (configuration not stated) the remaining at […] was > 30%.
In the case of CC(C)(C)c1cc(NC(=O)NC23CC4CC(CC(C4)C2)C3)no1, the remaining at […] is reported as > 30%.

System: Vero
Assay: cells
Details: Chlorocebus sabaeus, 72 h
Compound CC(C)c1nnc(NC(=O)NC2C3CC4CC(C3)CC2C4)o1 (configuration not stated) has an IC50 of 33 µg/mL (≈ 108 µM).
Cc1cnc(NC(=O)NC23CC4CC(CC(C4)C2)C3)s1 showed an IC50 of 23 µg/mL (≈ 78.9 µM).
Compound CC(C)(C)c1cc(NC(=O)NC23CC4CC(CC(C4)C2)C3)no1 has an IC50 of 6 µg/mL (≈ 18.9 µM).

System: Staphylococcus aureus
Assay: microbe, parasite or virus in culture
Details: ATCC 29213
With CC(C)c1nnc(NC(=O)NC2C3CC4CC(C3)CC2C4)o1 (configuration not stated) the MIC was > 200 µg/mL.
In the case of Cc1cnc(NC(=O)NC23CC4CC(CC(C4)C2)C3)s1, the MIC is reported as > 200 µg/mL.
CC(C)(C)c1cc(NC(=O)NC23CC4CC(CC(C4)C2)C3)no1 showed an MIC of 100 µg/mL (≈ 315 µM).

Molecular target: T1, Bifunctional epoxide hydrolase 2 (Homo sapiens, UniProt P34913)
T1 sequence (P34913 whole entry): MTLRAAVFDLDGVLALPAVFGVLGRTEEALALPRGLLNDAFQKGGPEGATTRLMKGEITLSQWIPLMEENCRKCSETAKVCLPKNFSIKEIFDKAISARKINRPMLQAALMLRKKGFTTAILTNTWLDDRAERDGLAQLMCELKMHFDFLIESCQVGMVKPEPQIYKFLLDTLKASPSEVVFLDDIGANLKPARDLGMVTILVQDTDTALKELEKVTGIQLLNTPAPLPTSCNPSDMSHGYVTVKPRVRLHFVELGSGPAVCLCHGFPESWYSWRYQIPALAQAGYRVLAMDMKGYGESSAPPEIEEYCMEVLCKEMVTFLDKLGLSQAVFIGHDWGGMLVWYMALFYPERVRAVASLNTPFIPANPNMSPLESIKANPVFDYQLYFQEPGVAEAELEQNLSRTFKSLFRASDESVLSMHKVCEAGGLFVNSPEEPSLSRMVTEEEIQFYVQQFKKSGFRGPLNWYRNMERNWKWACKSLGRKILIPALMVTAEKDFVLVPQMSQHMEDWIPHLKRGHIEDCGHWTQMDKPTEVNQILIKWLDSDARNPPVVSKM
Assay: not given
Details: not given
Work on CC(C)c1nnc(NC(=O)NC2C3CC4CC(C3)CC2C4)o1 (configuration not stated) yielded an IC50 of 843 nM.
With Cc1cnc(NC(=O)NC23CC4CC(CC(C4)C2)C3)s1 the IC50 was 116 nM.
CC(C)(C)c1cc(NC(=O)NC23CC4CC(CC(C4)C2)C3)no1 gave an IC50 of 56 nM.

System: Klebsiella pneumoniae
Assay: microbe, parasite or virus in culture
Details: not given
In the case of CC(C)c1nnc(NC(=O)NC2C3CC4CC(C3)CC2C4)o1 (configuration not stated), the MIC is reported as > 200 µg/mL.
In the case of Cc1cnc(NC(=O)NC23CC4CC(CC(C4)C2)C3)s1, the MIC is reported as > 200 µg/mL.
With CC(C)(C)c1cc(NC(=O)NC23CC4CC(CC(C4)C2)C3)no1 the MIC was > 200 µg/mL.

System: not listed separately
Assay: physchem
Details: system solution buffer, pH 7.4
In the case of CC1C(NC(=O)Nc2ccc(F)c(F)c2F)CC2CC1C2(C)C (configuration not stated), the solubility at 18 h is reported as < 0.1 µg/mL.
For N#Cc1ccc(NC(=O)NC2C3CC4CC(C3)CC2C4)cc1 (configuration not stated), the solubility at 18 h was < 0.1 µg/mL.
In the case of Cc1ccc(NC(=O)NC2CCCCCC2)cc1Cl, the solubility at 18 h is reported as < 0.1 µg/mL.
For O=C(Nc1ccc(F)c(F)c1F)NC12CC3CC(CC(C3)C1)C2, the solubility at 18 h was < 0.1 µg/mL.

System: Plasma
Assay: not given
Details: human, 4 h, 10 µM
Work on CC(C)c1nnc(NC(=O)NC2C3CC4CC(C3)CC2C4)o1 (configuration not stated) yielded a PPB of 98%.

System: Proteus mirabilis
Assay: microbe, parasite or virus in culture
Details: not given
In the case of CC(C)c1nnc(NC(=O)NC2C3CC4CC(C3)CC2C4)o1 (configuration not stated), the MIC is reported as > 200 µg/mL.
For Cc1cnc(NC(=O)NC23CC4CC(CC(C4)C2)C3)s1, the MIC was > 200 µg/mL.
For CC(C)(C)c1cc(NC(=O)NC23CC4CC(CC(C4)C2)C3)no1, the MIC was > 200 µg/mL.

System: Bacillus subtilis
Assay: microbe, parasite or virus in culture
Details: not given
CC(C)c1nnc(NC(=O)NC2C3CC4CC(C3)CC2C4)o1 (configuration not stated) showed an MIC of 100 µg/mL (≈ 329 µM).
In the case of Cc1cnc(NC(=O)NC23CC4CC(CC(C4)C2)C3)s1, the MIC is reported as > 200 µg/mL.
For CC(C)(C)c1cc(NC(=O)NC23CC4CC(CC(C4)C2)C3)no1, the MIC was > 200 µg/mL.

System: not given
Assay: not given
Details: buffer, pH 7.4, 18 h
Work on COC(=O)c1ccc(NC(=O)NC23CC4CC(CC(C4)C2)C3)cc1O yielded a solubility of 0.51 µg/mL (≈ 1.48 µM).

System: Acinetobacter
Assay: microbe, parasite or virus in culture
Details: not given
In the case of CC(C)c1nnc(NC(=O)NC2C3CC4CC(C3)CC2C4)o1 (configuration not stated), the MIC is reported as > 200 µg/mL.
With Cc1cnc(NC(=O)NC23CC4CC(CC(C4)C2)C3)s1 the MIC was > 200 µg/mL.
With CC(C)(C)c1cc(NC(=O)NC23CC4CC(CC(C4)C2)C3)no1 the MIC was > 200 µg/mL.

System: not listed separately
Assay: in vitro
Details: human, plasma
Compound CC1C(NC(=O)Nc2ccc(F)c(F)c2F)CC2CC1C2(C)C (configuration not stated) has a fraction unbound at 4 h, 10 µM of 0.008.
N#Cc1ccc(NC(=O)NC2C3CC4CC(C3)CC2C4)cc1 (configuration not stated) showed a fraction unbound at 4 h, 10 µM of 0.01.
COC(=O)c1ccc(NC(=O)NC23CC4CC(CC(C4)C2)C3)cc1O showed a fraction unbound at 4 h, 10 µM of 0.031.
Cc1ccc(NC(=O)NC2CCCCCC2)cc1Cl gave a fraction unbound at 4 h, 10 µM of 0.003.

System: Mycobacterium tuberculosis
Assay: microbe, parasite or virus in culture
Details: H37Rv, 168 h
CC(C)c1nnc(NC(=O)NC2C3CC4CC(C3)CC2C4)o1 (configuration not stated) showed an MIC of 1.56 µg/mL (≈ 5.12 µM).
Cc1cnc(NC(=O)NC23CC4CC(CC(C4)C2)C3)s1 showed an MIC of 3.13 µg/mL (≈ 10.7 µM).
Work on CC(C)(C)c1cc(NC(=O)NC23CC4CC(CC(C4)C2)C3)no1 yielded an MIC of 1.56 µg/mL (≈ 4.91 µM).

System: Proteus vulgaris
Assay: microbe, parasite or virus in culture
Details: not given
With CC(C)c1nnc(NC(=O)NC2C3CC4CC(C3)CC2C4)o1 (configuration not stated) the MIC was > 200 µg/mL.
With Cc1cnc(NC(=O)NC23CC4CC(CC(C4)C2)C3)s1 the MIC was > 200 µg/mL.
In the case of CC(C)(C)c1cc(NC(=O)NC23CC4CC(CC(C4)C2)C3)no1, the MIC is reported as > 200 µg/mL.
